Measurements published in paper PMC12225454, “Photo-clenbuterol: Optical Control of β2‑Adrenergic Receptor Signaling by Photoswitchable Ligand Efficacy” (Journal of Medicinal Chemistry, 2025).
Several values for one entry are separate records, joined by “and”; a condition that tells them apart may be missing. Equal entries are not always repeated.

Columns and labels:
human β2-AR = biological target: T1, human β2-AR (Homo sapiens, UniProt P07550, E27Q/G16R); assay: [3H]DHA competition radioligand binding on HEK293T membranes
T1 construct: Human β2AR (GenBank: NP_000015.1) in pcDNA3.1+ expression plasmid; expressed in transfected cells; host or cells: HEK293T cells, transient transfection with PEI; membranes prepared

β2-AR = β2-AR (Homo sapiens, UniProt P07550); assay: FRET-based EPAC cAMP assay, ligand stimulation (agonist mode); type: cell-based
[1] = Photostationary state composition by LC-MS at isosbestic point; conditions: for PSS cis (% cis) / PSS trans (% trans): DMSO 10 mM, LC-MS at isosbestic point; for PSS cis (% cis): after 360 ± 20 nm (12d: 520 ± 12 nm); for PSS trans (% trans): after 434 ± 9 nm from PSS cis
[2] = UV/vis absorption spectra before and after illumination; type: physicochemical; conditions: 25 μM in HBSS buffer containing 1% DMSO; for λmax (nm) PSS cis: n−π* transition, approximated from PSS cis composition; for λmax (nm) trans: π–π* transition of trans isomer
[3] = Photostationary state composition by 1H NMR; type: physicochemical
From the text: However, it has been computationally studied by Konrad et al. who calculated the n−π* band to be 444.5 nm for the cis isomer of the parent compound in the gas phase. […] The difference between calculated and experimental value could conceivably be the result of the buffer solvent not having been included in the calculations and/or the suboptimal trans to cis conversion at PSS cis (PSS cis = 66.3%). […] The PSS cis curve is slightly […], potentially enabling trans–cis isomerization at longer wavelengths. […] However, not unexpectedly given the low absorption at 560 nm, the illumination time required is much longer (hours versus 20 min with 360 nm illumination). Such longer illumination times would only be acceptable if the pharmacological differences between the isomers were much more pronounced, not requiring full conversions to PSS cis . […] The PSS cis and PSS trans values by LC–MS analysis (Figures B and S5) at the isosbestic point (376 nm) are 66.3% and 72.5%, respectively. These are similar to the 62.4% and 78.7% values obtained from ^1H NMR analysis, in which the well-resolved signal of the benzylic CH group allowed quantification of the PSS values (Figures C and S7).

[4] = Reversible isomerization cycles under alternating illumination (photobleaching resistance); conditions: 25 μM in HBSS buffer containing 1% DMSO; 365 ± 11 nm / 440 ± 25 nm

Chain of β2-AR (P07550 whole entry): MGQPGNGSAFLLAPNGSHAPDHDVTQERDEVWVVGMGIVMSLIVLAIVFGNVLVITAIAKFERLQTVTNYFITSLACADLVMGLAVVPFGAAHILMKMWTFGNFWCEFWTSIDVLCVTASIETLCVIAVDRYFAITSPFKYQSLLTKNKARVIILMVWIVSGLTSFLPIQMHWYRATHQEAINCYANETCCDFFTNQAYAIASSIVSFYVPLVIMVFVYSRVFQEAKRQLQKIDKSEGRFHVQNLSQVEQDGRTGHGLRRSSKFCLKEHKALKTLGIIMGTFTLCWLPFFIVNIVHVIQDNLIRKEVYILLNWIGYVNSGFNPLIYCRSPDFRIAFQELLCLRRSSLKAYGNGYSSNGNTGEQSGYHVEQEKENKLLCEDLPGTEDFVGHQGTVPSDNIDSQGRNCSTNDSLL
T1 sequence (P07550 whole entry G16R/E27Q): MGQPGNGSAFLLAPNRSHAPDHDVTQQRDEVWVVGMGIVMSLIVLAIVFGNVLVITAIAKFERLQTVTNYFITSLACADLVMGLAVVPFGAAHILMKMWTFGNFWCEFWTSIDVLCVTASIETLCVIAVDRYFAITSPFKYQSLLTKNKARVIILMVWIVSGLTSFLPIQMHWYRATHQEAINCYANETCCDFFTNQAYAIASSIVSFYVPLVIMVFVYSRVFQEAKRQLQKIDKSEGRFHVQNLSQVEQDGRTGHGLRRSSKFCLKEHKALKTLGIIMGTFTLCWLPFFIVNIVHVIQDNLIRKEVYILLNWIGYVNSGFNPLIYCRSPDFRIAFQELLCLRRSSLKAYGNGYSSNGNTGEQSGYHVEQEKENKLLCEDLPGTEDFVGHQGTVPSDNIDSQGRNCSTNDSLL

SMILES | PSS cis (% cis) [1] | PSS trans (% trans) [1] | λmax (nm) PSS cis [2] [nm] | λmax (nm) trans [2] [nm] | PSS cis value from 1H NMR analysis ([3]; 10 mM in DMSO-d6, 360 ± 20 nm) [%] | PSS trans value from 1H NMR analysis ([3]; 10 mM in DMSO-d6, 434 ± 9 nm after PSS cis) [%] | PSS cis value with 560 nm light ([1]; 560 nm illumination, LC-MS) [%] | resistance to photobleaching, dynamic isomerization cycles [4] | Ki (human β2-AR) [nM] | pEC50 trans (β2-AR) | α trans, intrinsic activity Emax (ligand)/Emax (isoprenaline) (β2-AR)
CC(C)(C)NCC(O)c1cc(Cl)c(N)c(C#N)c1 (stereo not drawn) [Compound 18, 2-Amino-5-(2-(tert-butylamino)-1-hydroxyethyl)-3-chlorobenzonitrile] |  |  |  |  |  |  |  |  | 20 | 9.0 ± 0.0 | 0.8 ± 0.0
CC(C)(C)NCC(O)c1ccc(/N=N/c2ccccc2)cc1 (stereo not drawn) [Compound 12a, (E)-2-(tert-Butylamino)-1-(4-(phenyldiazenyl)-phenyl)-ethan-1-ol] | 94.6 ± 0.5% | 71.8 ± 0.2% | 425 | 323 |  |  |  |  |  |  | 
CC(C)(C)NCC(O)c1cc(Cl)c(/N=N/c2ccccc2)c(C#N)c1 (stereo not drawn) [Compound 12e, (E)-5-(2-(tert-Butylamino)-1-hydroxyethyl)-3-chloro-2-(phenyldiazenyl)-benzonitrile] | 88.7 ± 0.8% | 82.0 ± 0.4% | 426 | 331 |  |  |  |  |  |  | 
CC(C)(C)NCC(O)c1cc(Cl)c(/N=N/c2c(Cl)cccc2Cl)c(Cl)c1 (stereo not drawn) [Compound 12d, (E)-2-(tert-Butylamino)-1-(3,5-dichloro-4-((2,6-dichlorophenyl)-diazenyl)-phenyl)-ethan-1-ol] | 38.5 ± 0.5% | 94.1 ± 0.3% | 441 | 293 |  |  |  |  |  |  | 

The next lines start with results.

PSS cis (% cis) [1] | PSS trans (% trans) [1] | λmax (nm) PSS cis [2] [nm] | λmax (nm) trans [2] [nm] | PSS cis value from 1H NMR analysis ([3]; 10 mM in DMSO-d6, 360 ± 20 nm) [%] | PSS trans value from 1H NMR analysis ([3]; 10 mM in DMSO-d6, 434 ± 9 nm after PSS cis) [%] | PSS cis value with 560 nm light ([1]; 560 nm illumination, LC-MS) [%] | resistance to photobleaching, dynamic isomerization cycles [4] | SMILES | Ki (human β2-AR) [nM] | pEC50 trans (β2-AR) | α trans, intrinsic activity Emax (ligand)/Emax (isoprenaline) (β2-AR)
97.6 ± 0.1% | 65.5 ± 0.2% | 428 | 328 |  |  |  |  | CC(C)(C)NCC(O)c1ccc(/N=N/c2ccccc2)c(Cl)c1 (stereo not drawn) [Compound 12c, (E)-2-(tert-Butylamino)-1-(3-chloro-4-(phenyldiazenyl)phenyl)-ethan-1-ol] |  |  | 
66.3% and 66.3 ± 0.9% | 72.5% and 72.5 ± 0.1% | 417 | 306 | 62.4 | 78.7 | 74.9 | at least 10 cycles | CC(C)(C)NCC(O)c1cc(Cl)c(/N=N/c2ccccc2)c(Cl)c1 (stereo not drawn) [Compound 12b, (E)-2-(tert-Butylamino)-1-(3,5-dichloro-4-(phenyldiazenyl)phenyl)-ethan-1-ol] |  |  | 
